Reference: ChEMBL document CHEMBL1150555, “Anti-histaminic activity of bromopyrrole alkaloids isolated from Caribbean Agelas sponges” (Bioorg Med Chem Lett, 1997)
Calls of active or inactive are those of the source. No cut-off for these calls is given here.

Columns and labels:
Agelas clathrodes = experiment: Distribution in Carribean Agelas clathrodes was determined and expressed as % dry weight; format: functional
Cavia porcellus [1] = species: Cavia porcellus; experiment: Apparent affinity towards histamine receptor was determined and expressed as pD2
Agelas conifera = experiment: Distribution in Carribean Agelas conifera was determined and expressed as % dry weight; format: functional
Agelas dispar = experiment: Distribution in Carribean Agelas dispar was determined and expressed as % dry weight; format: functional
agelas longissima = experiment: Distribution in Carribean Agelas longissima was determined and expressed as % dry weight; format: functional
Cavia porcellus [2] = species: Cavia porcellus; experiment: Apparent affinity towards histamine receptor was determined and expressed as pD2; IA = Inactive

Row | pD2 (Cavia porcellus [1]) | pD2 (Cavia porcellus [2]) | Structure (SMILES) | Dry weight (Agelas clathrodes) [%] | Dry weight (Agelas conifera) [%] | Dry weight (Agelas dispar) [%] | Dry weight (agelas longissima) [%]
1 | 5.52 |  | NC1=N/C(=C\CCNC(=O)c2cc(Br)c(Br)[nH]2)C(=O)N1 | 3.2 | 0.8 | 3.5 | 1.1
2 | 4.48 |  | NC1=N/C(=C\C(O)CNC(=O)c2cc(Br)c(Br)[nH]2)C(=O)N1 (stereo not given) | 3.2 | 0.8 | 3.5 | 1.1
3 | 4.02 |  | Nc1ncc(/C=C/CNC(=O)c2cc(Br)c(Br)[nH]2)[nH]1 | 2.1 | 2.1 | 4.2 | 4.1

The next lines start with the compound.

Row | Structure (SMILES) | pD2 (Cavia porcellus [1]) | pD2 (Cavia porcellus [2]) | Dry weight (Agelas clathrodes) [%] | Dry weight (Agelas conifera) [%] | Dry weight (Agelas dispar) [%] | Dry weight (agelas longissima) [%]
4 | NC1=N/C(=C\C(O)CNC(=O)c2cc(Br)c[nH]2)C(=O)N1 (stereo not given) | 4.34 |  | 0.5 | 3.5 | 0.2 | 3.3
5 | NC1=N/C(=C\CCNC(=O)c2cc(Br)c[nH]2)C(=O)N1 | 5.33 |  | 0.5 | 3.5 | 0.2 | 3.3
6 | C[N+]1=CNC[C@]1(C)CC(NC(=O)c1cc(Br)c[nH]1)C(=O)[O-] (stereo not given in full) |  | inactive | 7.2 | 0 | 0 | 0
7 | Nc1nc([C@H]2[C@H](CNC(=O)c3cc(Br)c[nH]3)[C@@H](CNC(=O)c3cc(Br)c[nH]3)[C@@H]2c2c[nH]c(N)n2)c[nH]1 | 4.24 |  | 15.1 | 8.8 | 15.5 | 2.5
